Assay results from paper PMC8253976, “Extracellular loops of the serotonin transporter act as a selectivity filter for drug binding” (The Journal of Biological Chemistry, 2021).
Where two headings read alike, the source gives them in different places.

Columns and labels:
SERT [1] = molecular target: T1, SERT (Homo sapiens, UniProt P31645); assay: Electrophysiological measurement of methylphenidate binding kinetics to SERT (peak current inhibition and recovery); type: cell-based; parameters: expressed in transfected cells; conditions: for koff: peak current recovery after washout, read-out: dissociation rate koff from SERT; for association rate constant kon for binding to SERT / kon: y-intercept constrained to koff; for kon: read-out: association rate constant kon for binding to SERT
T1 sequence (P31645 whole entry): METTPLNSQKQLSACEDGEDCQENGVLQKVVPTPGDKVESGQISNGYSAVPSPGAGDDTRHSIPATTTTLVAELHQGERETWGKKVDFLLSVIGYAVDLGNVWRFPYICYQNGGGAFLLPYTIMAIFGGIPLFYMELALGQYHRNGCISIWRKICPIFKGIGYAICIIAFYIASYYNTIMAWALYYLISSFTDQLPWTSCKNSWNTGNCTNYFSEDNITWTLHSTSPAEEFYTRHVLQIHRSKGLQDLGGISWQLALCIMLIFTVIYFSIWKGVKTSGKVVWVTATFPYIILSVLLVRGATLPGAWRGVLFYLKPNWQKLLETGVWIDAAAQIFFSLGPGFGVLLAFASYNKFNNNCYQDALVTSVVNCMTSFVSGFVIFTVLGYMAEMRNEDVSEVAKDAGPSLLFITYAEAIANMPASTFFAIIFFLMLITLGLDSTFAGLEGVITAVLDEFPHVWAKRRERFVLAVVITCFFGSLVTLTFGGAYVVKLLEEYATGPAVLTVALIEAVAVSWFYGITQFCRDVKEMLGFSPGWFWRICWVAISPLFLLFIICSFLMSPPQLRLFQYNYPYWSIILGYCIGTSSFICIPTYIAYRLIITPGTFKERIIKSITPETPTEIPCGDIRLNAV
Experimental: Accordingly, we explored the hypothesis that restricting the flexibility of extracellular loops may increase the affinity of methylphenidate. […] We therefore resorted to an electrophysiological approach, which relies on the substrate-induced peak current through SERT for determining the occupancy of the binding site by methylphenidate. […] The recordings were done in the presence of high internal Na^+ (152 mM) because a high internal Na^+ concentration eliminates the steady-state current component ([5]). The isolated peak current can be quantified with high precision ([5]). The association rate of methylphenidate in the absence (Fig. 9A) and presence (Fig. 9B) of 15B8 Fab was measured by applying 5-HT (30 μM) for 3 s to obtain the reference current. Cells were subsequently exposed to methylphenidate for time intervals varying between 0.2, 0.5, 1, 2, 5, and 10 s prior to eliciting a current by fresh superfusion with 5-HT. This allowed for monitoring the onset of the methylphenidate-induced inhibition of the peak current.
Peak currents were isolated (i.e., the steady-state current was suppressed) by a high concentration of Na^+ (152 mM) in the internal solution in the patch pipet. Shown is the compilation of representative peak current traces from a single cell. […] The dashed lines were drawn by fitting the decline in peak current amplitude to an equation for a monoexponential decay to a residual activity. C and D, the experiments were carried out as outlined in panels A and B with 10, 30, 100, and 300 μM methylphenidate (MPH) in the absence (C) and presence of 300 nM 15B8 Fab 8 (D). The peak current reduction was normalized by dividing test currents by the reference current and plotted as a function of time. Data are means ± SD from three to seven independent recordings for each concentration of methylphenidate. […] Then, the peak currents were elicited by rapid application of 30 μM 5-HT with 0, 0.2, 0.5, 1, 2, 5, and 10 s delay to observe its recovery.

SERT [2] = molecular target: T1, SERT; assay: [^3H]imipramine binding to membranes harboring GFP-tagged SERT; parameters: expressed in transfected cells; membrane preparation; conditions: in the presence of 8B6 scFv, 15B8 Fab, or antiSERT-EL4 antibody; data not shown

## COC(=O)C(c1ccccc1)C1CCCCN1 (stereo not drawn) [methylphenidate]
SERT [1]; 10 μM methylphenidate, absence of 15B8 Fab
  apparent on-rate kapp: 0.36 ± 0.12 s⁻¹
SERT [1]; 10 μM methylphenidate, presence of 300 nM 15B8 Fab
  apparent on-rate kapp: 1.20 ± 0.42 s⁻¹
SERT [1]; 30 μM methylphenidate, absence of 15B8 Fab
  apparent on-rate kapp: 0.87 ± 0.20 s⁻¹
SERT [1]; 30 μM methylphenidate, presence of 300 nM 15B8 Fab
  apparent on-rate kapp: 1.29 ± 0.27 s⁻¹
SERT [1]; 100 μM methylphenidate, absence of 15B8 Fab
  apparent on-rate kapp: 1.53 ± 0.40 s⁻¹
SERT [1]; 100 μM methylphenidate, presence of 300 nM 15B8 Fab
  apparent on-rate kapp: 2.72 ± 0.45 s⁻¹
SERT [1]; 300 μM methylphenidate, absence of 15B8 Fab
  apparent on-rate kapp: 3.46 ± 0.51 s⁻¹
SERT [1]; 300 μM methylphenidate, presence of 300 nM 15B8 Fab
  apparent on-rate kapp: 6.54 ± 1.04 s⁻¹
SERT [1]; absence of 15B8 Fab
  koff: 0.89 ± 0.14 s⁻¹
  association rate constant kon for binding to SERT: 8.55 ± 1.03 × 10^3 M^−1 s^−1
  kon: 8950 ± 1.03e+06 M⁻¹ s⁻¹
SERT [1]; presence of 15B8 Fab (300 nM)
  koff: 0.8 ± 0.12 s⁻¹
  association rate constant kon for binding to SERT: 1.92 ± 0.06 × 10^4 M^−1 s^−1
  kon: 19600 ± 6e+06 M⁻¹ s⁻¹
SERT [2]
  competition curve versus [^3H]imipramine: shift to the left
